Source: patent US11130769B2 (Prelude Therapeutics Incorporated, priority 2018, dated 2021)
Where two headings read alike, the source gives them in different places.

Experiments:
H929 cells = test: Cell viability assay (H929 10 FBS); assay type: cell-based; details: Homo sapiens, NCI-H929, 24 hours, read-out: H929_10FBS IC50
Description: Cell Viability Assay (H929 10 FBS)
Dispense 10 μL aliquot of prepared H929 cells (1:1 ratio of cells:Trypan Blue (#1450013, Bio-Rad)) onto cell counting slide (#145-0011, Bio-Rad) and obtain cell density and cell viability using cell counter (TC20, Bio-Rad). Remove appropriate volume of resuspended cells from culture flask to accommodate 4000 cells/well @ 10 μL/well. Transfer H929 cells to 50 mL conical (#430290, Corning). Spin down at 1000 rpm for 5 min using tabletop centrifuge (SPINCHRON 15, Beckman). Discard supernatant and resuspend cell pellet in modified RPMI 1640 (#10-040-CV, Corning) cell culture media containing 10% FBS (F2422-500 ML, Sigma), sodium pyruvate (100 mM) (#25-000-CL, Corning), HEPES buffer (1 M) (#25-060-CL, Corning) and glucose (200 g/L) (A24940-01, Gibco) to a cell density of 400,000 cells/mL. Dispense 10 μL of resuspended H929 cells per well in 384-well small volume TC treated plate (#784080, Greiner Bio-one) using standard cassette (#50950372, Thermo Scientific) on Multi-drop Combi (#5840310, Thermo Scientific) in laminar flow cabinet. Dispense compounds onto plates using digital liquid dispenser (D300E, Tecan). Incubate plates in humidified tissue culture incubator @ 37° C. for 24 hours. Add 10 μL of prepared CellTiTer-Glo® detection buffer (G7570, Promega) or ATPlite 1 Step detection reagent (#6016731, Perkin Elmer) to each well of 384-well plate using small tube cassette (#24073295, Thermo Scientific) on Combi multi drop, incubate @ RT for 30-60 min. Read plates with microplate reader (PheraStar, BMG Labtech) using 384 well luminescence mode.

MCL-1 = MCL-1 (Homo sapiens (Human), UniProt Q07820); test: Cell free Mcl-1:Bim affinity assay (fluorescence polarization competition); assay type: binding; details: 15 nM MCL-1, 5 nM FITC-Bim, 1 hour at room temperature, read-out: BIM_Ki
Sequence of MCL-1 (Q07820 whole entry): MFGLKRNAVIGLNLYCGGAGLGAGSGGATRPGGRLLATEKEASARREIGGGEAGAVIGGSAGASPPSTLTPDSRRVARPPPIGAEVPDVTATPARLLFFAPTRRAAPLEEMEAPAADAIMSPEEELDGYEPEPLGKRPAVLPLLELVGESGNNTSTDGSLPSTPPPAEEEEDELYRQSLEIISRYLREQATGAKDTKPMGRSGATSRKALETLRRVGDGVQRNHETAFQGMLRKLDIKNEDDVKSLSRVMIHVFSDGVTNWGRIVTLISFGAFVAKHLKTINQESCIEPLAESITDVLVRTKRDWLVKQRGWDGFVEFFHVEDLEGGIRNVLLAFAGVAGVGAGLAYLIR
Description: The binding affinity of each compound was measured via a fluorescence polarization competition assay, in which the compound competes for the same binding site with the ligand, and thus leads to a dose-dependent anisotropy reduction. The tracer ligand utilized was a fluorescein isothiocyanate labelled peptide (FITC-[…]) derived from Bim (GenScript).
The assay was carried out in black half-area 96-well NBS plate (Corning), containing 15 nM of MCL-1 (BPS Bioscience), 5 nM of FITC-Bim and 3-fold serial diluted test compounds in a total volume of 50 μL of assay buffer (20 mM HEPES, 50 mM NaCl, 0.002% Tween 20, 1 mM TCEP, and 1% DMSO). The reaction plate was incubated for 1 hour at room temperature. The change of anisotropy is measured with an Envision multimode plate reader (PerkinElmer) at emission wavelength 535 nm. Fluorescence polarization was calculated in mP unit and the percentage inhibition was calculated by % inhibition=100×(mPDMSO−mP)/(mPDMSO−mPPC), in which mPDMSO is the DMSO control, and mPpc is the positive control. IC50 values were determined from a 10-point dose response curve by fitting the percent inhibition against compound concentration using the GraphPad Prism software. The inhibition constant Ki was subsequently calculated according to the Nikolovska-Coleska's equation (Anal. Biochem., 2004, 332, 261),
[formula] • where [I]50 is the concentration of the free inhibitor at 50% inhibition, [L]50 is the concentration of the free labeled ligand at 50% inhibition, [P]0 is the concentration of the free protein at 0% inhibition, and Kd is the dissociation constant of the protein-ligand complex. See Table F. Caspase 3/7 Activity Assay

Structure (SMILES)	IC50 (H929 cells)	Ki (MCL-1; class symbols)	Ki (MCL-1; numeric values)
CC1(C)OC/C=C/[C@H](O)[C@@H]2CC[C@H]2CN2C[C@@]3(CCCc4cc(Cl)ccc43)COc3ccc(cc32)S(=O)(=O)NC1=O [Example 32, (3R,6R,7S,8E,22S)-6′-Chloro-7-hydroxy-12,12-dimethyl-15,15-dioxo-spiro[11,20-dioxa-15-thia-1,14-diazatetracyclo[14.7.2.03,6.019,24]pentacosa-8,16,18,24-tetraene-22,1′-tetralin]-13-one]	< 500 nM	< 1 nM	
COC[C@H]1CCCN1C(=O)O[C@H]1/C=C/COC(C)(C)C(=O)NS(=O)(=O)c2ccc3c(c2)N(C[C@@H]2CC[C@H]21)C[C@@]1(CCCc2cc(Cl)ccc21)CO3 [Example 161, [(3R,6R,7S,8E,22S)-6′-Chloro-12,12-dimethyl-13,15,15-trioxo-spiro[11,20-dioxa-15-thia-1,14-diazatetracyclo[14.7.2.03,6.019,24]pentacosa-8,16,18,24-tetraene-22,1′-tetralin]-7-yl] (2R)-2-(methoxymethyl)pyrrolidine-1-carboxylate]	< 1000 nM	< 1 nM	
CC1(C)OC/C=C/[C@H](OCCN2C[C@@H](F)[C@@H](F)C2)[C@@H]2CC[C@H]2CN2C[C@@]3(CCCc4cc(Cl)ccc43)COc3ccc(cc32)S(=O)(=O)NC1=O [Example 269, (3R,6R,7S,8E,22S)-6′-Chloro-7-[2-[(3R,4S)-3,4-difluoropyrrolidin-1-yl]ethoxy]-12,12-dimethyl-15,15-dioxo-spiro[11,20-dioxa-15-thia-1,14-diazatetracyclo[14.7.2.03,6.019,24]pentacosa-8,16,18,24-tetraene-22,1′-tetralin]-13-one]	< 500 nM	< 1 nM	
CN(C)C(=O)N(C)[C@H]1/C=C/COC(C)(C)C(=O)NS(=O)(=O)c2ccc3c(c2)N(C[C@@H]2CC[C@H]21)C[C@@]1(CCCc2cc(Cl)ccc21)CO3 [Example 257, 1,1,3-Trimethyl-3-[(3R,6R,7S,8E,22S)-6′-chloro-12,12-dimethyl-13,15,15-trioxo-spiro[11,20-dioxa-15-thia-1,14-diazatetracyclo[14.7.2.03,6.019,24]pentacosa-8,16(25),17,19(24)-tetraene-22,1′-tetralin]-7-yl]urea]	> 1000 nM	1 to 100 nM	
COCCN1CCN(C(=O)O[C@H]2/C=C/COC(C)(C)C(=O)NS(=O)(=O)c3ccc4c(c3)N(C[C@@H]3CC[C@H]32)C[C@@]2(CCCc3cc(Cl)ccc32)CO4)CC1 [Example 46, [(3R,6R,7S,8E,22S)-6′-Chloro-12,12-dimethyl-13,15,15-trioxo-spiro[11,20-dioxa-15-thia-1,14-diazatetracyclo[14.7.2.03,6.019,24]pentacosa-8,16,18,24-tetraene-22,1′-tetralin]-7-yl] 4-(2-methoxyethyl)piperazine-1-carboxylate]	< 500 nM	< 1 nM	
CN1CCN(C(=O)O[C@H]2/C=C/COC(C)(C)C(=O)NS(=O)(=O)c3ccc4c(c3)N(C[C@@H]3CC[C@H]32)C[C@@]2(CCCc3cc(Cl)ccc32)CO4)CC1 [Example 189, [(3R,6R,7S,8E,22S)-6′-Chloro-12,12-dimethyl-13,15,15-trioxo-spiro[11,20-dioxa-15-thia-1,14-diazatetracyclo[14.7.2.03,6.019,24]pentacosa-8,16,18,24-tetraene-22,1′-tetralin]-7-yl] 4-methylpiperazine-1-carboxylate]	< 500 nM	< 1 nM	
CC1(C)OC/C=C/[C@H](OC(=O)NCCc2cccnc2)[C@@H]2CC[C@H]2CN2C[C@@]3(CCCc4cc(Cl)ccc43)COc3ccc(cc32)S(=O)(=O)NC1=O [Example 178, [(3R,6R,7S,8E,22S)-6′-Chloro-12,12-dimethyl-13,15,15-trioxo-spiro[11,20-dioxa-15λ^6-thia-1,14-diazatetracyclo[14.7.2.0^3,6.0^19,24]pentacosa-8,16,18,24-tetraene-22,1′-tetralin]-7-yl] N-[2-(3-pyridyl)ethyl]carbamate]	< 500 nM	< 1 nM	
CC1(C)OC/C=C\[C@H](O)[C@@H]2CC[C@H]2CN2C[C@@]3(CCCc4cc(Cl)ccc43)COc3ccc(cc32)S(=O)(=O)NC1=O [Example 33, (3R,6R,7S,8Z,22S)-6′-Chloro-7-hydroxy-12,12-dimethyl-15,15-dioxo-spiro[11,20-dioxa-15-thia-1,14-diazatetracyclo[14.7.2.03,6.019,24]pentacosa-8,16,18,24-tetraene-22,1′-tetralin]-13-one]	< 500 nM	< 1 nM	
CN(C)C(=O)OC1CCCOC(C)(C)C(=O)NS(=O)(=O)c2ccc3c(c2)N(C[C@@H]2CC[C@@H]12)C[C@@]1(CCCc2cc(Cl)ccc21)CO3 (stereo partly drawn) [Example 286, [(3R,6R,22S)-6′-Chloro-12,12-dimethyl-13,15,15-trioxo-spiro[11,20-dioxa-15-thia-1,14-diazatetracyclo[14.7.2.03,6.019,24]pentacosa-16,18,24-triene-22,1′-tetralin]-7-yl] N,N-dimethylcarbamate]	> 1000 nM	1 to 100 nM	
CO[C@H]1/C=C/CNC(C)(C)C(=O)NS(=O)(=O)c2ccc3c(c2)N(C[C@@H]2CC[C@H]21)C[C@@]1(CCCc2cc(Cl)ccc21)CO3 [Example 136, (3R,6R,7S,8E,22S)-6′-Chloro-7-methoxy-12,12-dimethyl-15,15-dioxo-spiro[20-oxa-15-thia-1,11,14-triazatetracyclo[14.7.2.03,6.019,24]pentacosa-8,16,18,24-tetraene-22,1′-tetralin]-13-one]	> 1000 nM	1 to 100 nM	
COC(=O)N1C/C=C/[C@@H](OC)[C@@H]2CC[C@H]2CN2C[C@@]3(CCCc4cc(Cl)ccc43)COc3ccc(cc32)S(=O)(=O)NC(=O)[C@H]1C [Example 134, Methyl (3R,6R,7R,8E,12R,22S)-6′-Chloro-7-methoxy-12-methyl-13,15,15-trioxo-spiro[20-oxa-15-thia-1,11,14-triazatetracyclo[14.7.2.03,6.019,24]pentacosa-8,16,18,24-tetraene-22,1′-tetralin]-11-carboxylate]	> 1000 nM	1 to 100 nM	
CO[C@@H]1/C=C/COC(C)(C)C(=O)NS(=O)(=O)c2ccc3c(c2)N(C[C@@H]2CC[C@H]21)C[C@@]1(CCCc2cc(Cl)ccc21)CO3 [Example 30, (3R,6R,7R,8E,22S)-6′-Chloro-7-methoxy-12,12-dimethyl-15,15-dioxo-spiro[[11,20]dioxa-15-thia-1,14-diazatetracyclo[14.7.2.03,6.019,24]pentacosa[8,16(25),17,19(24)]tetraene-22,1′-tetralin]-13-one]	< 1000 nM	< 1 nM	
CN(C(=O)O[C@H]1/C=C/COC(C)(C)C(=O)NS(=O)(=O)c2ccc3c(c2)N(C[C@@H]2CC[C@H]21)C[C@@]1(CCOc2cc(Cl)ccc21)CO3)C1COC1 [Example 303, [(3R,6R,7S,8E,22S)-7′-Chloro-12,12-dimethyl-13,15,15-trioxo-spiro[11,20-dioxa-15-thia-1,14-diazatetracyclo[14.7.2.03,6.019,24]pentacosa-8,16,18,24-tetraene-22,4′-chromane]-7-yl] N-methyl-N-(oxetan-3-yl)carbamate]	< 500 nM	< 1 nM	
CC(=O)NS(=O)(=O)c1ccc2c(c1)N(CC1CCCCC1)CC1(CCCc3cc(Cl)ccc31)CO2 (stereo not shown) [Example 3, N-[6′-Chloro-5-(cyclohexylmethyl)spiro[2,4-dihydro-1,5-benzoxazepine-3,1′-tetralin]-7-yl]sulfonylacetamide]	> 1000 nM		143 nM
